Source: patent US7786163B2, “Constrained cyano compounds” (Forest Laboratories Holdings Limited (BM), priority 2004, dated 2010)
Where a name gives a salt, the structure may show the parent alone.

Legend:
Assay type in all cases: biochemical
human DPP-VIII = molecular target: T1, human DPP-VIII (Homo sapiens, UniProt Q6V1X1); assay: DPP-VIII inhibition assay (Ala-Pro AMC), selectivity vs DPP-IV; details: selectivity for DPP-IV relative to DPP-VIII
T1 construct: The full length cDNAs for human DPP-VII, DPP-VIII, DPP-IX, and FAP were obtained from Open Biosystems; 6xHis (C); made in house; host or cells: S9 (Sf9) insect cells, baculovirus (pFastBac, Bac-to-Bac)
T1 sequence (Q6V1X1 whole entry): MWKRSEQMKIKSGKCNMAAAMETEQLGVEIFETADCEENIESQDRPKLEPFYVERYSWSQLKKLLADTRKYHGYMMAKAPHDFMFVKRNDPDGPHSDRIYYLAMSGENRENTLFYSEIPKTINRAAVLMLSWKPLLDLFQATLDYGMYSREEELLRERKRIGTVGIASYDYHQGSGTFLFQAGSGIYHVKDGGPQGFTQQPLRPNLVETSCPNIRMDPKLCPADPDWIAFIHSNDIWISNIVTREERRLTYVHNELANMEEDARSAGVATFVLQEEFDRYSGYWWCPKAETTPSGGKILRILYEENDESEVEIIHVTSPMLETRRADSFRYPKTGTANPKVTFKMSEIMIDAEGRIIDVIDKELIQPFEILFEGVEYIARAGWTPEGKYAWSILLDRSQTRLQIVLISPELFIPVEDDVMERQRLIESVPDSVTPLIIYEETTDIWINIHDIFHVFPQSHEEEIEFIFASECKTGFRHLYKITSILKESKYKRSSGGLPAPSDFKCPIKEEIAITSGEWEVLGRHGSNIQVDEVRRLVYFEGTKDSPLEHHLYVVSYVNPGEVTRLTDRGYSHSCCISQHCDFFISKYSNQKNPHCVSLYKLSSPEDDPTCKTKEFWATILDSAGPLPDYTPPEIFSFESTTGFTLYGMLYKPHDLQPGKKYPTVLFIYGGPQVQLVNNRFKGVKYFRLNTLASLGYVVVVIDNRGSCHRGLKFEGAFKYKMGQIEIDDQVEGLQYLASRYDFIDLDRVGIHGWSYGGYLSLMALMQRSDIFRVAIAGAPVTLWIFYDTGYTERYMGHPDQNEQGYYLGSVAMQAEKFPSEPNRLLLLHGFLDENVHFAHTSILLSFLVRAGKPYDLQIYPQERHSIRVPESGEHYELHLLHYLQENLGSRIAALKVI
Description: (§1) Materials. S9 insect cells and Sf-900 II SFM media were from Invitrogen. Anti-FLAG M2 immunoaffinity gel was from Sigma. Gly-Pro-AMC, Lys-Pro AMC, and Ala-Pro AMC were from Enzyme Systems. IC50 calculations were performed by non-linear regression analysis using Prism software (GraphPad).
(§2) Preparation of DPP-VII DPP-VIII DPP-IX, and FAP baculovirus constructs. The full length cDNAs for human DPP-VII, DPP-VIII, DPP-IX, and FAP were obtained from Open Biosystems. The cDNAs were cloned into the pFastBac vector with the addition of an N-terminal FLAG tag on DPP-VII, C-terminal 6× His tags on DPP-VIII and DPP-IX, and an N-terminal 6× His tag on FAP (Sun 2002, Qi 2003, and Chen 2004). Baculovirus was prepared using the Bac-to-Bac Baculovirus Expression System (Invitrogen). The cDNAs in the final baculovirus constructs were sequence verified.
(§3) Baculovirus expression. S9 cells were grown to mid log phase at 27C with shaking at 125 RPM and then adjusted to 2×10E6/ml just prior to baculovirus infection. Infection with DPP-VII, DPP-VIII, DPP-IX, and FAP baculoviral constructs were all performed at an MOI of 4. The infected cells were grown for 48 hours and the cell pellets harvested and frozen until purification. DPP-VII was purified using anti-FLAG immunoaffinity gel according to the manufacturer's instructions. DPP-VIII, DPP-IX, and FAP were purified using a B-PER 6× His Fusion Protein Column Purification Kit from Pierce.
(§4) C50 assay. Recombinant DPPs were diluted in reaction buffer to give fluorescence values of 5000-20000 counts in the “enzyme only wells” 20 min after addition of substrate at 27° C. Reaction buffers were 25 mM (2-(4-Morpholino)-Ethane Sulfonic Acid), pH 5.5 for DPP-VII, 25 mM Tris, pH 8, 1% Triton X-100, 100 mM NaCl for DPP-VIII, and 25 mM Tris pH 8 for DPP-IX and FAP. Test wells in a 96-well microtiter plate contained 88 uL of diluted DPP and 2.5 ul of titrated compound in 50 mM glycine, pH 2.6. “Enzyme only” wells contained 88 uL of diluted DPP and 2.5 ul of glycine buffer. “No enzyme” wells contained 88 uL of reaction buffer without DPP and 2.5 ul of glycine buffer. All assays were done in triplicate. The plate was incubated at 27° C. for 10 min and then cooled on ice for 10 min. Ten microliters of substrate diluted in reaction buffer (40 uM final concentration) without Triton or NaCl were then added to all wells followed by incubation at 27C for 20 min. Substrates were Lys-Pro AMC for DPP-VII, and Ala-Pro AMC for DPP-VIII, DPP-IX, and FAP. Fluorescence in each well was measured at settings of 380/460 nm.
(§5) Compounds of the invention were tested for inhibition of DPP-IV according to Example 4 and DPP-VII, VIII, IX and FAP according to the present methods.

human FAP = molecular target: T2, human FAP (Homo sapiens, UniProt Q12884); assay: FAP inhibition assay (Ala-Pro AMC), selectivity vs DPP-IV; details: selectivity for DPP-IV relative to FAP
T2 construct: The full length cDNAs for human DPP-VII, DPP-VIII, DPP-IX, and FAP were obtained from Open Biosystems; 6xHis (N); made in house; host or cells: S9 (Sf9) insect cells, baculovirus (pFastBac, Bac-to-Bac)
T2 sequence (Q12884 1-760): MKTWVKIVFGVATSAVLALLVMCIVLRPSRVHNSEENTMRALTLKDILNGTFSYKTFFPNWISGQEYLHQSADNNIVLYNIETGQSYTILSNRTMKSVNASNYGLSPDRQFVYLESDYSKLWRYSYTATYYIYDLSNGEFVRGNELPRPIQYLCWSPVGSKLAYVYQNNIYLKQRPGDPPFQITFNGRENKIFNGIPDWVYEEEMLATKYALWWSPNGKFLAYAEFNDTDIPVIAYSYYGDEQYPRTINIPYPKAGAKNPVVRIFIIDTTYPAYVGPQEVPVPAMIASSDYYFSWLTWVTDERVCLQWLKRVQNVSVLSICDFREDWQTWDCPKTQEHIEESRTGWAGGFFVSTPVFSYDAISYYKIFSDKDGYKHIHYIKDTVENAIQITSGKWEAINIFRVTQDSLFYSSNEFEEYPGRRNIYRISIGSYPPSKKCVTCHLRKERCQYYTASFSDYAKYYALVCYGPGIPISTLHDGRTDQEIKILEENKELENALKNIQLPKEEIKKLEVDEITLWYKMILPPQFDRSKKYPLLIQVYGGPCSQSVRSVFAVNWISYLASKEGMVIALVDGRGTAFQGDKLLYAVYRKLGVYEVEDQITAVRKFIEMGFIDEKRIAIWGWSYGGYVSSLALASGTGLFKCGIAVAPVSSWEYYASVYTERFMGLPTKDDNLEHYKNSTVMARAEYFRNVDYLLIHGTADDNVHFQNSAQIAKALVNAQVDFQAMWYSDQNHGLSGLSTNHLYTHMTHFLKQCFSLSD
Description: as §1, §2, §3, §4, §5

human DPP-VII = molecular target: T3, human DPP-VII (Homo sapiens, UniProt Q9UHL4); assay: DPP-VII inhibition assay (Lys-Pro AMC), selectivity vs DPP-IV; details: selectivity for DPP-IV relative to DPP-VII
T3 construct: The full length cDNAs for human DPP-VII, DPP-VIII, DPP-IX, and FAP were obtained from Open Biosystems; FLAG (N); made in house; host or cells: S9 (Sf9) insect cells, baculovirus (pFastBac, Bac-to-Bac)
Description: as §1, §2, §3, §4, §5

human DPP-IX = molecular target: T4, human DPP-IX (Homo sapiens, UniProt Q86TI2); assay: DPP-IX inhibition assay (Ala-Pro AMC), selectivity vs DPP-IV; details: selectivity for DPP-IV relative to DPP-IX
T4 construct: The full length cDNAs for human DPP-VII, DPP-VIII, DPP-IX, and FAP were obtained from Open Biosystems; 6xHis (C); made in house; host or cells: S9 (Sf9) insect cells, baculovirus (pFastBac, Bac-to-Bac)
T4 sequence (Q86TI2 whole entry): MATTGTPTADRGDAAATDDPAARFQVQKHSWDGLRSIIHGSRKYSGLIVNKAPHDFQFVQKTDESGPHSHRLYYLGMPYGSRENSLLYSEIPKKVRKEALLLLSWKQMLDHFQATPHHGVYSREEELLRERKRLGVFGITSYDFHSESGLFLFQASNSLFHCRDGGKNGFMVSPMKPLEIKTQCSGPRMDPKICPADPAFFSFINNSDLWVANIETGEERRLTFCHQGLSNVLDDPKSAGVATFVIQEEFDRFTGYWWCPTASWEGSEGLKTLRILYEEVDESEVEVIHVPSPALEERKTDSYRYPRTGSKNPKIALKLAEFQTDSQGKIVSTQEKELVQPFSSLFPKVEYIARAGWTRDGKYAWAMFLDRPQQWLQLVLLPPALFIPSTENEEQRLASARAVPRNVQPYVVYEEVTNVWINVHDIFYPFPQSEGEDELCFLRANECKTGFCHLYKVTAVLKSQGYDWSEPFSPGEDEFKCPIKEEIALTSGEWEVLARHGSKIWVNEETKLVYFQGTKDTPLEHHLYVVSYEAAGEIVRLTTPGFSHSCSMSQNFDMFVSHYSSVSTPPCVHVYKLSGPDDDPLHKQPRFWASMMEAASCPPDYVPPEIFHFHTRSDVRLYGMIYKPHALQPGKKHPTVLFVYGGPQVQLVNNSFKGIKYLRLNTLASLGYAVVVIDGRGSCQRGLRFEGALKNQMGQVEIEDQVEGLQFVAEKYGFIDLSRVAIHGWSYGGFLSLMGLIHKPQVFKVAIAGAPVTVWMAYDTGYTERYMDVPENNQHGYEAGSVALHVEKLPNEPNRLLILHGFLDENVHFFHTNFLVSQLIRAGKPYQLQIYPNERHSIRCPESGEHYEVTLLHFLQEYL
Description: as §1, §2, §3, §4, §5

Structure (SMILES)	Selectivity Ratios DPP-VIII (human DPP-VIII)	Selectivity Ratios FAP (human FAP)	Selectivity Ratios DPP-VII (human DPP-VII)	Selectivity Ratios DPP-IX (human DPP-IX)
Cl.N#C[C@@H]1CS[C@H]2C[C@@H](N)C(=O)N12 [Compound 7, 6-Amino-5-oxo-hexahydro-pyrrolo[2,1-b]thiazole-3-carbonitrile]	B (10 < B < 100)	C (C ≧ 100)	C (C ≧ 100)	A (A ≦ 10)
CC[C@@]1(N)C[C@@H]2SC[C@@H](C#N)N2C1=O.Cl [Compound 21, 6-Amino-6-ethyl-5-oxo-hexahydro-pyrrolo[2,1-b]thiazole-3-carbonitrile hydrochloride]	B (10 < B < 100)	C (C ≧ 100)	C (C ≧ 100)	A (A ≦ 10)
CC(C)[C@@]1(N)C[C@@H]2SC[C@@H](C#N)N2C1=O.Cl [Compound 22, 6-Amino-6-isopropyl-5-oxo-hexahydro-pyrrolo[2,1-b]thiazole-3-carbonitrile hydrochloride]	B (10 < B < 100)	C (C ≧ 100)	C (C ≧ 100)	A (A ≦ 10)
Cl.N#C[C@@H]1CS[C@H]2C[C@](N)(C3CCCC3)C(=O)N12 [Compound 23, 6-Amino-6-cyclopentyl-5-oxo-hexahydro-pyrrolo[2,1-b]thiazole-3-carbonitrile hydrochloride]	A (A ≦ 10)	C (C ≧ 100)	B (10 < B < 100)	A (A ≦ 10)
Cl.N#C[C@@H]1CS[C@H]2C[C@](N)(C3CCCCC3)C(=O)N12 [Compound 24, 6-Amino-6-cyclohexyl-5-oxo-hexahydro-pyrrolo[2,1-b]thiazole-3-carbonitrile hydrochloride]	A (A ≦ 10)	C (C ≧ 100)	B (10 < B < 100)	A (A ≦ 10)
CC(C)C[C@@]1(N)C[C@@H]2SC[C@@H](C#N)N2C1=O.Cl [Compound 25, 6-Amino-6-isobutyl-5-oxo-hexahydro-pyrrolo[2,1-b]thiazole-3-carbonitrile hydrochloride]	B (10 < B < 100)	C (C ≧ 100)	A (A ≦ 10)	A (A ≦ 10)
CC[C@H](C)[C@@]1(N)C[C@@H]2SC[C@@H](C#N)N2C1=O.Cl [Compound 26, 6-Amino-6-sec-butyl-5-oxo-hexahydro-pyrrolo[2,1-b]thiazole-3-carbonitrile hydrochloride]	B (10 < B < 100)	C (C ≧ 100)	B (10 < B < 100)	A (A ≦ 10)
Cl.N#C[C@@H]1CS[C@H]2C[C@](N)(CCc3ccccc3)C(=O)N12 [Compound 27, 6-Amino-5-oxo-6-phenethyl-hexahydro-pyrrolo[2,1-b]thiazole-3-carbonitrile hydrochloride]	A (A ≦ 10)	B (10 < B < 100)	A (A ≦ 10)	A (A ≦ 10)
N#CC1CSC2CC(N)(Cc3ccccc3)C(=O)N12 (centres unmarked) [Compound 28, 6-Amino-6-benzyl-5-oxo-hexahydro-pyrrolo[2,1-b]thiazole-3-carbonitrile hydrochloride]	B (10 < B < 100)	B (10 < B < 100)	B (10 < B < 100)	B (10 < B < 100)
Cl.N#C[C@@H]1CS[C@H]2C[C@](N)(CC3CCCCC3)C(=O)N12 [Compound 29, 6-Amino-6-cyclohexylmethyl-5-oxo-hexahydro-pyrrolo[2,1-b]thiazole-3-carbonitrile hydrochloride]	A (A ≦ 10)	C (C ≧ 100)	A (A ≦ 10)	A (A ≦ 10)
Cl.N#C[C@@H]1CS[C@H]2C[C@](N)(c3ccc(F)cc3)C(=O)N12 [Compound 30, 6-Amino-6-(4-fluoro-phenyl)-5-oxo-hexahydro-pyrrolo[2,1-b]thiazole-3-carbonitrile hydrochloride]	B (10 < B < 100)	B (10 < B < 100)	B (10 < B < 100)	A (A ≦ 10)
Cl.N#C[C@@H]1CS[C@H]2C[C@](N)(c3ccccc3)C(=O)N12 [Compound 31, 6-Amino-5-oxo-6-phenyl-hexahydro-pyrrolo[2,1-b]thiazole-3-carbonitrile hydrochloride]	C (C ≧ 100)	C (C ≧ 100)	C (C ≧ 100)	B (10 < B < 100)
Cl.N#C[C@@H]1CS[C@H]2C[C@@](N)(C3CCCC3)C(=O)N12 [Compound 33]	B (10 < B < 100)	B (10 < B < 100)	B (10 < B < 100)	A (A ≦ 10)
Cl.N#C[C@@H]1CS[C@H]2C[C@@](N)(c3ccccc3)C(=O)N12 [Compound 34]	B (10 < B < 100)	C (C ≧ 100)	C (C ≧ 100)	A (A ≦ 10)
